The values below are quoted from earlier work in US20210356455A1, “SCREENING AGENTS CAPABLE OF INHIBITING PAIN AND/OR PRURITUS AND METHODS AND COMPOSITIONS FOR TREATING PAIN AND/OR PRURITUS USING SAID AGENTS” (President and Fellows of Harvard College, priority 2020, published 2021).

Data set [1] addresses T1, Mrgprd (MAS Related GPR Family Member D) (Homo sapiens, UniProt Q8TDS7). The note with it: micromolar doses; cells expressing the receptor.
In data set [2] the target is T1, Mrgprd (MAS Related GPR Family Member D). The settings on record: cells expressing the receptor.
The target in data set [3] is T2, Mrgpra3 (Mas-related G-protein coupled receptor member A3) (Mus musculus, UniProt Q91WW3).
T2 sequence (Q91WW3 1-302): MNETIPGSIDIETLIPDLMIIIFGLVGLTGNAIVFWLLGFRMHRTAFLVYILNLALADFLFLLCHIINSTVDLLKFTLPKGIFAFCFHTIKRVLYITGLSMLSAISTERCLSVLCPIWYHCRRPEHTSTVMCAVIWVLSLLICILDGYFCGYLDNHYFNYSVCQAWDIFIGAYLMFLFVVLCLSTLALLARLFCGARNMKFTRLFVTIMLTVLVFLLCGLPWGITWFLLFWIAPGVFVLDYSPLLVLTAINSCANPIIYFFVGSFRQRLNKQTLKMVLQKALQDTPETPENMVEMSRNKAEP

Data set [4] has as its target Ntsr2 (Neurotensin Receptor 2) (Homo sapiens, UniProt O95665). The settings on record: binding and pharmacological studies.

T1 sequence (Q8TDS7 whole entry, species assumed): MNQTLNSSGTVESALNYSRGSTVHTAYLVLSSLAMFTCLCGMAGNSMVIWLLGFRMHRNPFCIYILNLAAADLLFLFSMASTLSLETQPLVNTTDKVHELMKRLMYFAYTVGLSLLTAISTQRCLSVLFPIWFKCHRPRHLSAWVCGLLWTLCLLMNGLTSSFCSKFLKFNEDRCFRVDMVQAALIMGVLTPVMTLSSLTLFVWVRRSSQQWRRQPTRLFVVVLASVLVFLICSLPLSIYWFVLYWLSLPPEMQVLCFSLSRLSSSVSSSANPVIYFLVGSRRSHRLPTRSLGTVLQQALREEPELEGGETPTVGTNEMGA
Ntsr2 (Neurotensin Receptor 2), sequence (O95665 whole entry, species assumed): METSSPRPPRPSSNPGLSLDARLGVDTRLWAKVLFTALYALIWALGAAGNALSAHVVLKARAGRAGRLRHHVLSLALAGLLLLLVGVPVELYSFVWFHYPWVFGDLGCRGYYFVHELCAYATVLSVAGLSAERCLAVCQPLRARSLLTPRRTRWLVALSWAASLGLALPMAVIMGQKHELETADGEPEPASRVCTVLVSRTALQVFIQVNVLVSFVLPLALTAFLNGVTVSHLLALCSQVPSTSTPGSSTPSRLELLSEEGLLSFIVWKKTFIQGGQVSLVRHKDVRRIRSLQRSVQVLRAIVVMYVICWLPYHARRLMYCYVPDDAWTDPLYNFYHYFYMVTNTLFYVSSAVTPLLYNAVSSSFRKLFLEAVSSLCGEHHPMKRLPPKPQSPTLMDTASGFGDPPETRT

For the compound `NCCC(=O)O` [Beta-alanine, beta-alanine], the “Ca(2+) influx” value in data set [1] is “specifically evoked Ca(2+) influx”. Besides, the “forskolin-stimulated cAMP production” value in data set [2] is listed as “decreases forskolin-stimulated cAMP production”. `CCN(CC)CCCC(C)Nc1ccnc2cc(Cl)ccc12` (stereo not shown) [chloroquine]: in data set [3], the receptor activation entry is “Activated”. In the case of `C[C@@H]1CN([C@H]2CC[C@](C#N)(c3ccc(F)cc3)CC2)CC[C@]1(C(=O)O)c1ccccc1` [levocabastine], the “affinity for the receptor” value in data set [4] is listed as “high affinity”.
